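Cells were grown in 96-well plates and exposed to each compound for 48 hours at five concentrations; endpoints were interpolated linearly between bracketing concentrations, or set to the highest concentration if not reached. GI50 marks 50% less growth. Definition used: TGI = concentration required for complete inhibition of growth.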
Columns and labels:
Test in all cases: NCI anticancer screen, dose series, 48 h
NCI-H460 lung = tested on: NCI-H460 lung
MALME-3M melanoma = tested on: MALME-3M melanoma
BT-549 breast = tested on: BT-549 breast
ACHN renal = tested on: ACHN renal
CAKI-1 renal = tested on: CAKI-1 renal
KM12 colon = tested on: KM12 colon
COLO 205 colon = tested on: COLO 205 colon
SNB-19 CNS = tested on: SNB-19 CNS
786-0 renal = tested on: 786-0 renal
OVCAR-5 ovarian = tested on: OVCAR-5 ovarian
MOLT-4 leukemia = tested on: MOLT-4 leukemia
K-562 leukemia = tested on: K-562 leukemia
SK-MEL-2 melanoma = tested on: SK-MEL-2 melanoma
OVCAR-4 ovarian = tested on: OVCAR-4 ovarian
OVCAR-8 ovarian = tested on: OVCAR-8 ovarian
UACC-62 melanoma = tested on: UACC-62 melanoma
U251 CNS = tested on: U251 CNS
CCRF-CEM leukemia = tested on: CCRF-CEM leukemia
MDA-MB-468 breast = tested on: MDA-MB-468 breast
SK-OV-3 ovarian = tested on: SK-OV-3 ovarian
HCT-116 colon = tested on: HCT-116 colon
TK-10 renal = tested on: TK-10 renal
M14 melanoma = tested on: M14 melanoma
SK-MEL-28 melanoma = tested on: SK-MEL-28 melanoma
A549 NSCLC = tested on: A549 NSCLC
MCF7 breast = tested on: MCF7 breast
SF-539 CNS = tested on: SF-539 CNS
SNB-75 CNS = tested on: SNB-75 CNS
MDA-MB-435 = tested on: MDA-MB-435
NCI-H522 lung = tested on: NCI-H522 lung
RXF 393 renal = tested on: RXF 393 renal
HOP-92 NSCLC = tested on: HOP-92 NSCLC
LOX IMVI melanoma = tested on: LOX IMVI melanoma
SK-MEL-5 melanoma = tested on: SK-MEL-5 melanoma
HL-60(TB) leukemia = tested on: HL-60(TB) leukemia
HCT-15 colon = tested on: HCT-15 colon
DU-145 prostate = tested on: DU-145 prostate
HS 578T breast = tested on: HS 578T breast
HOP-62 NSCLC = tested on: HOP-62 NSCLC
SW-620 colon = tested on: SW-620 colon
A498 renal = tested on: A498 renal
T-47D breast = tested on: T-47D breast
SF-268 CNS = tested on: SF-268 CNS
MDA-MB-231 breast = tested on: MDA-MB-231 breast
PC-3 prostate = tested on: PC-3 prostate
SN12C renal = tested on: SN12C renal
NCI-H226 lung = tested on: NCI-H226 lung
EKVX NSCLC = tested on: EKVX NSCLC
RPMI-8226 leukemia = tested on: RPMI-8226 leukemia
HT29 colon = tested on: HT29 colon
SF-295 CNS = tested on: SF-295 CNS
SR leukemia = tested on: SR leukemia
OVCAR-3 ovarian = tested on: OVCAR-3 ovarian
NCI-H23 lung = tested on: NCI-H23 lung
UO-31 renal = tested on: UO-31 renal
NCI/ADR-RES ovarian = tested on: NCI/ADR-RES ovarian
IGROV1 ovarian = tested on: IGROV1 ovarian
HCC-2998 colon = tested on: HCC-2998 colon

With `O=C(Nc1cccc(-n2cnc3cc(-c4ccc(O)cc4)ccc32)c1)C1CC1` the GI50 (NCI-H460 lung) was 0.469 µM, the TGI (NCI-H460 lung) was > 43.7 µM and the GI50 (MALME-3M melanoma) was 0.555 µM. The TGI (MALME-3M melanoma) was 28.2 µM, the GI50 (BT-549 breast) was 0.396 µM and the TGI (BT-549 breast) was 11.8 µM. The GI50 (ACHN renal) was 0.593 µM, the TGI (ACHN renal) was 35.2 µM and the GI50 (CAKI-1 renal) was 0.503 µM. The TGI (CAKI-1 renal) was 66.5 µM, the GI50 (KM12 colon) was 0.351 µM and the TGI (KM12 colon) was 13.9 µM. It also gave a GI50 (COLO 205 colon) of 0.489 µM, a TGI (COLO 205 colon) of 18.6 µM and a GI50 (SNB-19 CNS) of 0.811 µM. The TGI (SNB-19 CNS) was 72.9 µM, the GI50 (786-0 renal) was 0.683 µM and the TGI (786-0 renal) was 45.6 µM. It also gave a GI50 (OVCAR-5 ovarian) of 1.81 µM, a TGI (OVCAR-5 ovarian) of 69.5 µM and a GI50 (MOLT-4 leukemia) of 0.435 µM. The TGI (MOLT-4 leukemia) was 6.19 µM, the GI50 (K-562 leukemia) was 0.284 µM and the TGI (K-562 leukemia) was > 36.6 µM. The GI50 (SK-MEL-2 melanoma) was 0.417 µM, the TGI (SK-MEL-2 melanoma) was 23.6 µM and the GI50 (OVCAR-4 ovarian) was 5.94 µM. For the same molecule, the TGI (OVCAR-4 ovarian) was 73.9 µM, the GI50 (OVCAR-8 ovarian) was 0.823 µM and the TGI (OVCAR-8 ovarian) was > 58.8 µM. The GI50 (UACC-62 melanoma) was 0.354 µM, the TGI (UACC-62 melanoma) was 19.3 µM and the GI50 (U251 CNS) was 0.514 µM. The TGI (U251 CNS) was > 100 µM, the GI50 (CCRF-CEM leukemia) was 0.389 µM and the TGI (CCRF-CEM leukemia) was 10.3 µM. The GI50 (MDA-MB-468 breast) was 0.313 µM, the TGI (MDA-MB-468 breast) was 8.82 µM and the GI50 (SK-OV-3 ovarian) was 0.82 µM. It also gave a TGI (SK-OV-3 ovarian) of 33.7 µM, a GI50 (HCT-116 colon) of 0.512 µM and a TGI (HCT-116 colon) of 17.7 µM. It also gave a GI50 (TK-10 renal) of 11.3 µM, a TGI (TK-10 renal) of 63.4 µM and a GI50 (M14 melanoma) of 0.344 µM. For the same molecule, the TGI (M14 melanoma) was 28.3 µM, the GI50 (SK-MEL-28 melanoma) was 12.6 µM and the TGI (SK-MEL-28 melanoma) was 48.5 µM. The GI50 (A549 NSCLC) was 0.895 µM, the TGI (A549 NSCLC) was > 100 µM and the GI50 (MCF7 breast) was 0.358 µM. It also gave a TGI (MCF7 breast) of 20.2 µM, a GI50 (SF-539 CNS) of 0.332 µM and a TGI (SF-539 CNS) of 2.03 µM. For the same molecule, the GI50 (SNB-75 CNS) was 0.246 µM, the TGI (SNB-75 CNS) was 3.42 µM and the GI50 (MDA-MB-435) was 0.108 µM. It also gave a TGI (MDA-MB-435) of 0.441 µM, a GI50 (NCI-H522 lung) of 0.225 µM and a TGI (NCI-H522 lung) of 1.14 µM. It also gave a GI50 (RXF 393 renal) of 0.411 µM, a TGI (RXF 393 renal) of 6.6 µM and a GI50 (HOP-92 NSCLC) of 14.6 µM. The TGI (HOP-92 NSCLC) was 52.1 µM, the GI50 (LOX IMVI melanoma) was 0.478 µM and the TGI (LOX IMVI melanoma) was 22.1 µM. The GI50 (SK-MEL-5 melanoma) was 0.35 µM, the TGI (SK-MEL-5 melanoma) was 14.8 µM and the GI50 (HL-60(TB) leukemia) was 0.237 µM. It also gave a TGI (HL-60(TB) leukemia) of 0.645 µM, a GI50 (HCT-15 colon) of 0.308 µM and a TGI (HCT-15 colon) of 15.7 µM. It also gave a GI50 (DU-145 prostate) of 1.46 µM, a TGI (DU-145 prostate) of 28.4 µM and a GI50 (HS 578T breast) of 0.388 µM. The TGI (HS 578T breast) was > 45.4 µM, the GI50 (HOP-62 NSCLC) was 0.625 µM and the TGI (HOP-62 NSCLC) was > 69.2 µM. For the same molecule, the GI50 (SW-620 colon) was 0.421 µM, the TGI (SW-620 colon) was > 91.5 µM and the GI50 (A498 renal) was 19.5 µM. It also gave a TGI (A498 renal) of 84.9 µM, a GI50 (T-47D breast) of 0.521 µM and a TGI (T-47D breast) of 19.4 µM. The GI50 (SF-268 CNS) was 0.935 µM, the TGI (SF-268 CNS) was 71 µM and the GI50 (MDA-MB-231 breast) was 0.7 µM. The TGI (MDA-MB-231 breast) was 42.9 µM, the GI50 (PC-3 prostate) was 0.546 µM and the TGI (PC-3 prostate) was 53.2 µM. It also gave a GI50 (SN12C renal) of 0.55 µM, a TGI (SN12C renal) of 35.6 µM and a GI50 (NCI-H226 lung) of 2.88 µM. It also gave a TGI (NCI-H226 lung) of 48.1 µM, a GI50 (EKVX NSCLC) of 0.782 µM and a TGI (EKVX NSCLC) of 36.1 µM. The GI50 (RPMI-8226 leukemia) was 0.615 µM, the TGI (RPMI-8226 leukemia) was 13.6 µM and the GI50 (HT29 colon) was 0.34 µM. For the same molecule, the TGI (HT29 colon) was > 40.8 µM, the GI50 (SF-295 CNS) was 0.372 µM and the TGI (SF-295 CNS) was 7.67 µM. For the same molecule, the GI50 (SR leukemia) was 0.175 µM, the TGI (SR leukemia) was 59.6 µM and the GI50 (OVCAR-3 ovarian) was 0.32 µM. It also gave a TGI (OVCAR-3 ovarian) of 3.76 µM, a GI50 (NCI-H23 lung) of 1.12 µM and a TGI (NCI-H23 lung) of 19.8 µM. The GI50 (UO-31 renal) was 0.599 µM, the TGI (UO-31 renal) was 19.3 µM and the GI50 (NCI/ADR-RES ovarian) was 0.539 µM. The TGI (NCI/ADR-RES ovarian) was 5.88 µM, the GI50 (IGROV1 ovarian) was 0.591 µM and the TGI (IGROV1 ovarian) was 26.9 µM. The GI50 (HCC-2998 colon) was 1.18 µM and the TGI (HCC-2998 colon) was 24.4 µM.

Source: PubChem BioAssay (NCI)
